From patent US7914817B2, “Treatment of inflammatory bowel disease” (Ed. Geistlich Soehne AG fuer Chemische Industrie, priority 2000, dated 2011)

Key:
[1] = test system: gram positive and gram negative bacteria and fungi; settings: cited from earlier work
[2] = metabolized to taurine, carbon dioxide and water; cited from earlier work
[3] = test system: inflammatory response in intestinal mucosa in patients with active inflammatory bowel disease; assay: Oral taurolidine in patients with active IBD: inflammatory response in intestinal mucosa (Example 2); type: in vivo
Source text: This example evaluates the beneficial effect of oral administration of taurolidine on amelioration of inflammatory response in intestinal mucosa in patients with active inflammatory bowel disease. This Example measures proinflammatory cytokines, angiogenic cytokines, reactive oxygen species and nitric oxide in the mucosal biopsy cultures in patients with IBD pre- and post-taurolidine administration. Local mucosal recruited PMN and mononuclear leukocyte-associated proinflammatory cytokine and angiogenic cytokine expression in patients with IBD are assessed pre- and post-taurolidine treatment.
• 1) The specimens of standard intestinal mucosal biopsy are collected from patients with IBD on the day before taurolidine administration, and day 5 and day 10 after taurolidine administration, and incubated with completed culture medium for different time points. The supernatants from the biopsy cultures are harvested by centrifugation and stored at −80° C. for measurement of proinflammatory cytokines (TNF-α, IL-1β, IL-6), angiogenic cytokines (VEGF, TGF-β1), lipid peroxides (malonaldehyde), nitric oxide and peroxynitrite. • 2) The mononuclear leukocytes from the above specimens of mucosal biopsy are isolated using the technique of collagenase-digestion and density gradient sedimentation. […]

[4] = test system: systemic inflammatory response in patients with active inflammatory bowel disease; assay: Oral taurolidine in patients with active IBD: systemic inflammatory response (Example 1); type: in vivo; settings: pre- vs post-administration (day 2, 5, 10)
Procedure: This experiment evaluates the beneficial effects of oral administration of taurolidine on attenuation of systemic inflammatory response in patients with active inflammatory bowel disease. This Example measures systemic proinflammatory and angiogenic cytokines, systemic reactive oxygen species and nitric oxide in patients with IBD pre- and post-taurolidine administration. Secondly, circulating PMN and monocytes from patients with IBD are assessed for their adhesion receptor expression, and their ability to release proinflammatory and angiogenic cytokines, as well as reactive oxygen species and nitric oxide following taurolidine treatment.
• 1) Peripheral venous blood samples are collected from patients on the day before taurolidine administration, and day 2, day 5 and day 10 after taurolidine administration. Serum samples are harvested by centrifugation and stored at −80° C. for measurement of serum levels of endotoxin, LPS binding protein (LBP), and soluble CD14, serum proinflammatory cytokines (TNF-α, IL-1β, IL-6), serum angiogenic cytokines (VEGF, TGF-β1), serum lipid peroxides (malonaldehyde), nitric oxide and peroxynitrite. • 2) Receptor expression of CD11a, CD11b, CD18, and CD14 on PMN and monocytes in the whole blood samples are assessed on the day before taurolidine administration, and day 2, day 5, and day 10 after taurolidine administration. […]

[5] = humans and animals, intravenous and intraperitoneal administration; cited from earlier work

Question: Which antimicrobial activity [1] does the source give for `O=S1(=O)CCN(CN2CCS(=O)(=O)NC2)CN1` [Taurolidine, bis(1,1-dioxoperhydro-1,2,4-thiadiazin-4-yl)methane] here?
Answer: Its antimicrobial activity is “broad spectrum of antimicrobial activity”.

Question: What about the half life [2] of the same molecule?
Answer: Its half life is “short half life”.

Question: And the “pathological changes in intestinal mucosa” value ([3]; day before vs day 5 and day 10)?
Answer: The value was “improves pathological changes in intestinal mucosa”.

Question: And the “proinflammatory cytokines, angiogenic cytokines, reactive oxygen species, recruitment of PMN and mononuclear leukocytes in the intestinal mucosa” value ([3]; mucosal biopsy)?
Answer: Its value is “downregulation”.

Question: And the “systemic proinflammatory and angiogenic cytokine levels, PMN and monocyte adhesion receptor expression, lipid peroxides, nitric oxide, peroxynitrite” value [4]?
Answer: The value was “ameliorates these phenomena”.

Question: What about the “toxicity / side effects” value [5] of the same molecule?
Answer: Its value is “non-toxic to humans and animals and is free from side effects”.
